Each compound was assayed against T1, human GPR119 (Homo sapiens, UniProt Q8TDV5) (assay: AlphaScreen cAMP assay in MIN6 cells stably transfected with human GPR119). Details: Min-6/hGPR119 cells, 45 min at room temperature.
T1 construct: expression vector for human GPR119 cDNA (Acc. No. NP_848566); expressed in transfected cells; Min-6/hGPR119
T1 sequence (Q8TDV5 1-335): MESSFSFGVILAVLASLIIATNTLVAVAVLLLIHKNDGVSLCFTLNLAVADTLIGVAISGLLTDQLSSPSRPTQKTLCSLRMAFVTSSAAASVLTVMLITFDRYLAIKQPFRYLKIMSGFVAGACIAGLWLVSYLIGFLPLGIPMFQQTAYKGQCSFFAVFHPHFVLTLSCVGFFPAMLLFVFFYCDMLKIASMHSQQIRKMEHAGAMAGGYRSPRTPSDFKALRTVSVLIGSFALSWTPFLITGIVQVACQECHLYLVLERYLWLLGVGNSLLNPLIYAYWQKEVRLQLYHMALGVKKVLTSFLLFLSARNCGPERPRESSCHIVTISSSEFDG
Assay type: cell-based
Outline: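 MIN6 cells stably expressing human GPR119, seeded 10000/well and grown 24 h, were exposed to compound in pH 7.4 buffer with 0.5 mM IBMX, 0.1% BSA and 1% DMSO for 45 min at room temperature. Intracellular cAMP then measured by AlphaScreen.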
Cc1nccn1-c1ncc(C(=O)N(C2CC2)C2CCN(C(=O)OC(C)(C)C)CC2)cn1 [Example 99, 4-{Cyclopropyl-[2-(2-methyl-imidazol-1-yl)-pyimidine-5-carbonyl]-amino}-piperidine-1-carboxylic acid tert-butyl ester] gave an EC50 of 37 nM.
Compound CC(C)(C)OC(=O)N1CCC(N(C(=O)c2cnc(-n3cnnc3)nc2)C2CC2)CC1 [Example 100, 4-[Cyclopropyl-(2-[1,2,4]triazol-4-yl-pyrimidine-5-carbonyl)-amino]-piperidine-1-carboxylic acid tert-butyl ester] has an EC50 of 810 nM.
CC(C)(CO)CNC(=O)c1ccc(-c2ncc(C(=O)N(C3CC3)C3CCN(C(=O)OC(C)(C)C)CC3)cn2)c(F)c1 [Example 101, 4-(Cyclopropyl-{2-[2-fluoro-4-(3-hydroxy-2,2-dimethyl-propylcarbamoyl)-phenyl]-pyrimidine-5-carbonyl}-amino)-piperidine-1-carboxylic acid tert-butyl ester] was tested, and the EC50 was 441 nM.
In the case of CCOCCNC(=O)c1ccc(-c2ncc(C(=O)N(C3CC3)C3CCN(C(=O)OC(C)(C)C)CC3)cn2)cc1F [Example 102, 4-(Cyclopropyl-{2-[4-(2-ethoxy-ethylcarbamoyl)-3-fluoro-phenyl]-pyrimidine-5-carbonyl}-amino)-piperidine-1-carboxylic acid tert-butyl ester], the EC50 is reported as 109 nM.
With CC(C)(C)OC(=O)N1CCC(N(C(=O)c2cnc(-c3ccc(C(=O)NC4CCCOC4)c(F)c3)nc2)C2CC2)CC1 (centres unmarked) [Example 103, 4-(Cyclopropyl-{2-[3-fluoro-4-(tetrahydro-pyran-3-ylcarbamoyl)-phenyl]-pyrimidine-5-carbonyl}-amino)-piperidine-1-carboxylic acid tert-butyl ester] the EC50 was 168 nM.
For Cc1noc(C2CCN(C(=O)c3ccc(-c4ncc(C(=O)N(C5CC5)C5CCN(C(=O)OC(C)(C)C)CC5)cn4)cc3F)C2)n1 (centres unmarked) [Example 104, 4-[Cyclopropyl-(2-{3-fluoro-4-[3-(3-methyl-[1,2,4]oxadiazol-5-yl)-pyrrolidine-1-carbonyl]-phenyl}-pyrimidine-5-carbonyl)-amino]-piperidine-1-carboxylic acid tert-butyl ester], the EC50 was 180 nM.
With CC(C)(C)OC(=O)N1CCC(N(C(=O)c2cnc(-c3ccc(C(=O)NCc4ccccn4)c(F)c3)nc2)C2CC2)CC1 [Example 105, 4-[Cyclopropyl-(2-{3-fluoro-4-[(pyridin-2-ylmethyl)-carbamoyl]-phenyl}-pyrimidine-5-carbonyl)-amino]-piperidine-1-carboxylic acid tert-butyl ester] the EC50 was 144 nM.
With COCC(C)N(C)C(=O)c1ccc(-c2ncc(C(=O)N(C3CC3)C3CCN(C(=O)OC(C)(C)C)CC3)cn2)cc1F (centres unmarked) [Example 106, 4-[Cyclopropyl-(2-{3-fluoro-4-[(2-methoxy-1-methyl-ethyl)-methyl-carbamoyl]-phenyl}-pyrimidine-5-carbonyl)-amino]-piperidine-1-carboxylic acid tert-butyl ester] the EC50 was 253 nM.
COC(C)CN(C)C(=O)c1ccc(-c2ncc(C(=O)N(C3CC3)C3CCN(C(=O)OC(C)(C)C)CC3)cn2)cc1F (centres unmarked) [Example 107, 4-[Cyclopropyl-(2-{3-fluoro-4-[(2-methoxy-propyl)-methyl-carbamoyl]-phenyl}-pyrimidine-5-carbonyl)-amino]-piperidine-1-carboxylic acid tert-butyl ester] gave an EC50 of 114 nM.
For COC[C@@H]1CCCN1C(=O)c1ccc(-c2ncc(C(=O)N(C3CC3)C3CCN(C(=O)OC(C)(C)C)CC3)cn2)cc1F [Example 108, 4-(Cyclopropyl-{2-[3-fluoro-4-(2-methoxymethyl-pyrrolidine-1-carbonyl)-phenyl]-pyrimidine-5-carbonyl}-amino)-piperidine-1-carboxylic acid tert-butyl ester], the EC50 was 312 nM.
Work on CC(C)(C)OC(=O)N1CCC(N(C(=O)c2cnc(-c3ccc(C(=O)NCC#N)c(F)c3)nc2)C2CC2)CC1 [Example 109, 4-({2-[4-(Cyanomethyl-carbamoyl)-3-fluoro-phenyl]-pyrimidine-5-carbonyl}-cyclopropyl-amino)-piperidine-1-carboxylic acid tert-butyl ester] yielded an EC50 of 85 nM.

From patent publication US20140045823A1 (Neurocrine Biosciences, Inc., priority 2012, published 2014)
